# System: TK-10
# Assay: Growth inhibition of human TK10 cells assessed as cell growth at 10^-5 M incubated for 48 hrs by sulforhodamine B assay relative to control
# Assay type: functional
# Conditions: TK-10, 48 h, read-out: Activity
row,Structure (SMILES),growth at 10 µM [%]
1,Cc1n[nH]c2c1C(c1ccc(C3NCCc4c3[nH]c3ccccc43)cc1)C(C#N)=C(N)O2 (stereo not drawn),101

# System: K562
# Assay: Growth inhibition of human K562 cells assessed as cell growth at 10^-5 M incubated for 48 hrs by sulforhodamine B assay relative to control
# Assay type: functional
# Conditions: K562, 48 h, read-out: Activity
row,Structure (SMILES),growth at 10 µM [%]
1,Cc1n[nH]c2c1C(c1ccc(C3NCCc4c3[nH]c3ccccc43)cc1)C(C#N)=C(N)O2 (stereo not drawn),74.3

# System: U-251
# Assay: Growth inhibition of human U251 cells assessed as cell growth at 10^-5 M incubated for 48 hrs by sulforhodamine B assay relative to control
# Assay type: functional
# Conditions: U-251, 48 h, read-out: Activity
row,Structure (SMILES),growth at 10 µM [%]
1,Cc1n[nH]c2c1C(c1ccc(C3NCCc4c3[nH]c3ccccc43)cc1)C(C#N)=C(N)O2 (stereo not drawn),87.5

# System: COLO 205
# Assay: Growth inhibition of human COLO205 cells assessed as cell growth at 10^-5 M incubated for 48 hrs by sulforhodamine B assay relative to control
# Assay type: functional
# Conditions: COLO 205, 48 h, read-out: Activity
row,Structure (SMILES),growth at 10 µM [%]
1,Cc1n[nH]c2c1C(c1ccc(C3NCCc4c3[nH]c3ccccc43)cc1)C(C#N)=C(N)O2 (stereo not drawn),92.4

# System: BT-549
# Assay: Growth inhibition of human BT549 cells assessed as cell growth at 10^-5 M incubated for 48 hrs by sulforhodamine B assay relative to control
# Assay type: functional
# Conditions: BT-549, 48 h, read-out: Activity
row,Structure (SMILES),growth at 10 µM [%]
1,Cc1n[nH]c2c1C(c1ccc(C3NCCc4c3[nH]c3ccccc43)cc1)C(C#N)=C(N)O2 (stereo not drawn),81.8

# System: OVCAR-4
# Assay: Growth inhibition of human OVCAR4 cells assessed as cell growth at 10^-5 M incubated for 48 hrs by sulforhodamine B assay relative to control
# Assay type: functional
# Conditions: OVCAR-4, 48 h, read-out: Activity
row,Structure (SMILES),growth at 10 µM [%]
1,Cc1n[nH]c2c1C(c1ccc(C3NCCc4c3[nH]c3ccccc43)cc1)C(C#N)=C(N)O2 (stereo not drawn),85.7

# System: MDA-MB-468
# Assay: Growth inhibition of human MDA-MB-468 cells assessed as cell growth at 10^-5 M incubated for 48 hrs by sulforhodamine B assay relative to control
# Assay type: functional
# Conditions: MDA-MB-468, 48 h, read-out: Activity
row,Structure (SMILES),growth at 10 µM [%]
1,Cc1n[nH]c2c1C(c1ccc(C3NCCc4c3[nH]c3ccccc43)cc1)C(C#N)=C(N)O2 (stereo not drawn),92.7

# System: UO-31
# Assay: Growth inhibition of human UO31 cells assessed as cell growth at 10^-5 M incubated for 48 hrs by sulforhodamine B assay relative to control
# Assay type: functional
# Conditions: UO-31, 48 h, read-out: Activity
row,Structure (SMILES),growth at 10 µM [%]
1,Cc1n[nH]c2c1C(c1ccc(C3NCCc4c3[nH]c3ccccc43)cc1)C(C#N)=C(N)O2 (stereo not drawn),53.9

# System: SR
# Assay: Growth inhibition of human SR cells assessed as cell growth at 10^-5 M incubated for 48 hrs by sulforhodamine B assay relative to control
# Assay type: functional
# Conditions: read-out: Activity
row,Structure (SMILES),growth at 10 µM [%]
1,Cc1n[nH]c2c1C(c1ccc(C3NCCc4c3[nH]c3ccccc43)cc1)C(C#N)=C(N)O2 (stereo not drawn),113

# System: Malme-3M
# Assay: Growth inhibition of human MALME-3M cells assessed as cell growth at 10^-5 M incubated for 48 hrs by sulforhodamine B assay relative to control
# Assay type: functional
# Conditions: read-out: Activity
row,Structure (SMILES),growth at 10 µM [%]
1,Cc1n[nH]c2c1C(c1ccc(C3NCCc4c3[nH]c3ccccc43)cc1)C(C#N)=C(N)O2 (stereo not drawn),77

# System: UACC-62
# Assay: Growth inhibition of human UACC62 cells assessed as cell growth at 10^-5 M incubated for 48 hrs by sulforhodamine B assay relative to control
# Assay type: functional
# Conditions: UACC-62, 48 h, read-out: Activity
row,Structure (SMILES),growth at 10 µM [%]
1,Cc1n[nH]c2c1C(c1ccc(C3NCCc4c3[nH]c3ccccc43)cc1)C(C#N)=C(N)O2 (stereo not drawn),57.8

# System: HCC 2998
# Assay: Growth inhibition of human HCC2998 cells assessed as cell growth at 10^-5 M incubated for 48 hrs by sulforhodamine B assay relative to control
# Assay type: functional
# Conditions: HCC 2998, 48 h, read-out: Activity
row,Structure (SMILES),growth at 10 µM [%]
1,Cc1n[nH]c2c1C(c1ccc(C3NCCc4c3[nH]c3ccccc43)cc1)C(C#N)=C(N)O2 (stereo not drawn),105

# System: SNB-75
# Assay: Growth inhibition of human SNB75 cells assessed as cell growth at 10^-5 M incubated for 48 hrs by sulforhodamine B assay relative to control
# Assay type: functional
# Conditions: SNB-75, 48 h, read-out: Activity
row,Structure (SMILES),growth at 10 µM [%]
1,Cc1n[nH]c2c1C(c1ccc(C3NCCc4c3[nH]c3ccccc43)cc1)C(C#N)=C(N)O2 (stereo not drawn),70.4

# System: SK-MEL-2
# Assay: Growth inhibition of human SK-MEL-2 cells assessed as cell growth at 10^-5 M incubated for 48 hrs by sulforhodamine B assay relative to control
# Assay type: functional
# Conditions: SK-MEL-2, 48 h, read-out: Activity
row,Structure (SMILES),growth at 10 µM [%]
1,Cc1n[nH]c2c1C(c1ccc(C3NCCc4c3[nH]c3ccccc43)cc1)C(C#N)=C(N)O2 (stereo not drawn),86

# System: HCT-15
# Assay: Growth inhibition of human HCT15 cells assessed as cell growth at 10^-5 M incubated for 48 hrs by sulforhodamine B assay relative to control
# Assay type: functional
# Conditions: HCT-15, 48 h, read-out: Activity
row,Structure (SMILES),growth at 10 µM [%]
1,Cc1n[nH]c2c1C(c1ccc(C3NCCc4c3[nH]c3ccccc43)cc1)C(C#N)=C(N)O2 (stereo not drawn),87.7

# System: HOP-92
# Assay: Growth inhibition of human HOP92 cells assessed as cell growth at 10^-5 M incubated for 48 hrs by sulforhodamine B assay relative to control
# Assay type: functional
# Conditions: HOP-92, 48 h, read-out: Activity
row,Structure (SMILES),growth at 10 µM [%]
1,Cc1n[nH]c2c1C(c1ccc(C3NCCc4c3[nH]c3ccccc43)cc1)C(C#N)=C(N)O2 (stereo not drawn),88.8

# System: 786-0
# Assay: Growth inhibition of human 786-0 cells assessed as cell growth at 10^-5 M incubated for 48 hrs by sulforhodamine B assay relative to control
# Assay type: functional
# Conditions: 786-0, 48 h, read-out: Activity
row,Structure (SMILES),growth at 10 µM [%]
1,Cc1n[nH]c2c1C(c1ccc(C3NCCc4c3[nH]c3ccccc43)cc1)C(C#N)=C(N)O2 (stereo not drawn),97.4

# System: T47D
# Assay: Growth inhibition of human T47D cells assessed as cell growth at 10^-5 M incubated for 48 hrs by sulforhodamine B assay relative to control
# Assay type: functional
# Conditions: read-out: Activity
row,Structure (SMILES),growth at 10 µM [%]
1,Cc1n[nH]c2c1C(c1ccc(C3NCCc4c3[nH]c3ccccc43)cc1)C(C#N)=C(N)O2 (stereo not drawn),75.2

# System: ACHN
# Assay: Growth inhibition of human ACHN cells assessed as cell growth at 10^-5 M incubated for 48 hrs by sulforhodamine B assay relative to control
# Assay type: functional
# Conditions: read-out: Activity
row,Structure (SMILES),growth at 10 µM [%]
1,Cc1n[nH]c2c1C(c1ccc(C3NCCc4c3[nH]c3ccccc43)cc1)C(C#N)=C(N)O2 (stereo not drawn),83.5

# System: DU-145
# Assay: Growth inhibition of human DU145 cells assessed as cell growth at 10^-5 M incubated for 48 hrs by sulforhodamine B assay relative to control
# Assay type: functional
# Conditions: DU-145, 48 h, read-out: Activity
row,Structure (SMILES),growth at 10 µM [%]
1,Cc1n[nH]c2c1C(c1ccc(C3NCCc4c3[nH]c3ccccc43)cc1)C(C#N)=C(N)O2 (stereo not drawn),105

# System: NCI/ADR-RES
# Assay: Growth inhibition of human NCI-ADR-RES cells assessed as cell growth at 10^-5 M incubated for 48 hrs by sulforhodamine B assay relative to control
# Assay type: functional
# Conditions: read-out: Activity
row,Structure (SMILES),growth at 10 µM [%]
1,Cc1n[nH]c2c1C(c1ccc(C3NCCc4c3[nH]c3ccccc43)cc1)C(C#N)=C(N)O2 (stereo not drawn),96.3

# System: MOLT-4
# Assay: Growth inhibition of human MOLT4 cells assessed as cell growth at 10^-5 M incubated for 48 hrs by sulforhodamine B assay relative to control
# Assay type: functional
# Conditions: MOLT-4, 48 h, read-out: Activity
row,Structure (SMILES),growth at 10 µM [%]
1,Cc1n[nH]c2c1C(c1ccc(C3NCCc4c3[nH]c3ccccc43)cc1)C(C#N)=C(N)O2 (stereo not drawn),81.1

# System: CCRF-CEM
# Assay: Growth inhibition of human CCRF-CEM cells assessed as cell growth at 10^-5 M incubated for 48 hrs by sulforhodamine B assay relative to control
# Assay type: functional
# Conditions: read-out: Activity
row,Structure (SMILES),growth at 10 µM [%]
1,Cc1n[nH]c2c1C(c1ccc(C3NCCc4c3[nH]c3ccccc43)cc1)C(C#N)=C(N)O2 (stereo not drawn),83.7

# System: MDA-MB-435
# Assay: Growth inhibition of human MDA-MB-435 cells assessed as cell growth at 10^-5 M incubated for 48 hrs by sulforhodamine B assay relative to control
# Assay type: functional
# Conditions: MDA-MB-435, 48 h, read-out: Activity
row,Structure (SMILES),growth at 10 µM [%]
1,Cc1n[nH]c2c1C(c1ccc(C3NCCc4c3[nH]c3ccccc43)cc1)C(C#N)=C(N)O2 (stereo not drawn),96.3

# System: HT-29
# Assay: Growth inhibition of human HT-29 cells assessed as cell growth at 10^-5 M incubated for 48 hrs by sulforhodamine B assay relative to control
# Assay type: functional
# Conditions: HT-29, 48 h, read-out: Activity
row,Structure (SMILES),growth at 10 µM [%]
1,Cc1n[nH]c2c1C(c1ccc(C3NCCc4c3[nH]c3ccccc43)cc1)C(C#N)=C(N)O2 (stereo not drawn),91.7

# System: OVCAR-5
# Assay: Growth inhibition of human OVCAR5 cells assessed as cell growth at 10^-5 M incubated for 48 hrs by sulforhodamine B assay relative to control
# Assay type: functional
# Conditions: OVCAR-5, 48 h, read-out: Activity
row,Structure (SMILES),growth at 10 µM [%]
1,Cc1n[nH]c2c1C(c1ccc(C3NCCc4c3[nH]c3ccccc43)cc1)C(C#N)=C(N)O2 (stereo not drawn),87.4

# System: NCI-H322M
# Assay: Growth inhibition of human NCI-H322M cells assessed as cell growth at 10^-5 M incubated for 48 hrs by sulforhodamine B assay relative to control
# Assay type: functional
# Conditions: read-out: Activity
row,Structure (SMILES),growth at 10 µM [%]
1,Cc1n[nH]c2c1C(c1ccc(C3NCCc4c3[nH]c3ccccc43)cc1)C(C#N)=C(N)O2 (stereo not drawn),97.7

# System: LOX IMVI
# Assay: Growth inhibition of human LOXIMVI cells assessed as cell growth at 10^-5 M incubated for 48 hrs by sulforhodamine B assay relative to control
# Assay type: functional
# Conditions: read-out: Activity
row,Structure (SMILES),growth at 10 µM [%]
1,Cc1n[nH]c2c1C(c1ccc(C3NCCc4c3[nH]c3ccccc43)cc1)C(C#N)=C(N)O2 (stereo not drawn),80.6

# System: OVCAR-3
# Assay: Growth inhibition of human OVCAR3 cells assessed as cell growth at 10^-5 M incubated for 48 hrs by sulforhodamine B assay relative to control
# Assay type: functional
# Conditions: OVCAR-3, 48 h, read-out: Activity
row,Structure (SMILES),growth at 10 µM [%]
1,Cc1n[nH]c2c1C(c1ccc(C3NCCc4c3[nH]c3ccccc43)cc1)C(C#N)=C(N)O2 (stereo not drawn),96.6

# System: HL-60(TB)
# Assay: Growth inhibition of human HL-60(TB) cells assessed as cell growth at 10^-5 M incubated for 48 hrs by sulforhodamine B assay relative to control
# Assay type: functional
# Conditions: HL-60, 48 h, read-out: Activity
row,Structure (SMILES),growth at 10 µM [%]
1,Cc1n[nH]c2c1C(c1ccc(C3NCCc4c3[nH]c3ccccc43)cc1)C(C#N)=C(N)O2 (stereo not drawn),101

# System: NCI-H226
# Assay: Growth inhibition of human NCI-H226 cells assessed as cell growth at 10^-5 M incubated for 48 hrs by sulforhodamine B assay relative to control
# Assay type: functional
# Conditions: NCI-H226, 48 h, read-out: Activity
row,Structure (SMILES),growth at 10 µM [%]
1,Cc1n[nH]c2c1C(c1ccc(C3NCCc4c3[nH]c3ccccc43)cc1)C(C#N)=C(N)O2 (stereo not drawn),87

# System: NCI-H23
# Assay: Growth inhibition of human NCI-H23 cells assessed as cell growth at 10^-5 M incubated for 48 hrs by sulforhodamine B assay relative to control
# Assay type: functional
# Conditions: NCI-H23, 48 h, read-out: Activity
row,Structure (SMILES),growth at 10 µM [%]
1,Cc1n[nH]c2c1C(c1ccc(C3NCCc4c3[nH]c3ccccc43)cc1)C(C#N)=C(N)O2 (stereo not drawn),87.7

# System: Hs-578T
# Assay: Growth inhibition of human Hs 578T cells assessed as cell growth at 10^-5 M incubated for 48 hrs by sulforhodamine B assay relative to control
# Assay type: functional
# Conditions: read-out: Activity
row,Structure (SMILES),growth at 10 µM [%]
1,Cc1n[nH]c2c1C(c1ccc(C3NCCc4c3[nH]c3ccccc43)cc1)C(C#N)=C(N)O2 (stereo not drawn),87.7

# From ChEMBL document CHEMBL4004838, “Design and synthesis of novel phenyl -1, 4-beta-carboline-hybrid molecules as potential anticancer agents” (Eur J Med Chem, 2017)
